Laboratory results from patent US9682993B2, “Anticancer compounds” (ST. JUDE CHILDREN'S RESEARCH HOSPITAL, priority 2012, dated 2017).
Read-outs that look alike come from different tables or passages of the source.

Key:
[1] = test system: MDM2 alternative splicing in Rh18 cells; assay: In vitro alternative splicing assay (MDM2, RT-PCR); format: cell-based; details: Rh18 cells, 8 h exposure; Table II
Description: Briefly, following an 8 h exposure of exponentially growing cells to drug, total RNA was isolated using TRIzol reagent (Invitrogen, Carlsbad, Calif.). Total RNA (1 μg) was used to convert the mRNA to cDNA by using random primers, Oligo(dT)16 and Omniscript Reverse Transcription Kit (Qiagen, Germantown, Md.). PCR analyses were performed using specific oligonucleotides (see Table I) and standard amplification protocols. PCR products were separated by agarose gel electrophoresis, visualized by ethidium bromide staining on an UV transilluminator, and recorded. PCR band sizes were calculated by comparing them to the standard EZ Load 100-bp PCR Molecular Ruler (BioRad Laboratories, Hercules, Calif.).

[2] = test system: JeKo1; assay: In vitro cytotoxicity analysis, JeKo1; format: cell-based; details: Homo sapiens, JeKo-1
Source text: The A549 lung cancer, WiDr colorectal cancer, MCF-7 breast cancer, PC-3 prostate cancer, and OVCAR-3 ovarian cancer cell lines were purchased from the American Type Culture Collection (ATCC, Manassas, Va.) and were maintained in growth media as recommended by the ATCC. The JeKo-1 and JVM-2 mantle cell lymphoma cell lines were purchased from the DSMZ (Brunswick, Germany) and were maintained in growth media as recommended by the vendor. The pediatric rhabdomyosarcoma Rh18 cell line was provided y Dr. P. Houghton (Ohio State University—Nationwide Children's Hospital, Columbus, Ohio) and were maintained in growth media as recommended by Dr. Houghton. All cell culture media were supplemented with L-glutamine and penicillin/streptomycin. All cells were grown under standard culture conditions in CO2 incubators, at 37° C., with 5% CO2, and 100% relative humidity.
Cell viabilities were determined by measuring the cleavage of (sodium 3′-[1-(phenylaminocarbonyl)-3,4-tetrazolium]-bis(4-methoxy-6-nitro)benzene sulfonic acid hydrate) (XTT) to a water-soluble orange formazan by mitochondrial dehydrogenase, following the manufacturer's instructions (Roche Applied Science, Indianapolis, Ind.). Briefly, cell lines were seeded at various cell densities depending on the cell type. The adherent cell lines were allowed to adhere overnight before compound addition, whereas the suspension cell lines were seeded the day of compound addition. Stock concentrations of the compounds were made in DMSO, diluted in culture media and subsequently added to the plates at various final concentrations, then incubated for 72 hours. After the incubation period, the XTT labeling reagent, containing the electron-coupling reagent, was added to each well and incubated for 4 hours. The absorbance of each well was then read at 490 nm with a reference wavelength of 690 nm using a VersaMax™ microplate reader (Sunnyvale, Calif.). Data are expressed as the percentage of growth compared to vehicle-treated cells, as calculated from absorbance and corrected for background absorbance.
Alternatively, cell lines were seeded in 100 μL cell culture medium in 96-well plates. Depending on the cell proliferation rate, cells were seeded at 4,000 to 6,000 cells/well. Suspension cell cultures were initiated with 20,000 cells/well. The cells were incubated overnight at 37° C., and then the drug treatments were started by adding 50 μL medium containing the corresponding drug dilution and DMSO. The final concentration of DMSO onto the cells was 0.5% v/v in all wells. The cells viability was determined using the CellTiter-Glo Luminescent Cell Viability Assay (Promega, Madison, Wis.). The CellTiter-Glo reagent was prepared according to the manufacturer's instructions, and then 50 μL reagent was added to each well for 1 h at rt. The luminescence was measured on an Envision Multilabel Plate Reader (PerkinElmer, Waltham, Mass.). The IC50 values were calculated from the dose-response curve analysis with GraphPad Prism 6.01 (GraphPad Software, La Jolla, Calif.) using the nonlinear regression model 4 Parameter Logistic. Nine concentrations were generated by 1:2 serial dilutions for each IC50 assay. Each drug concentration was evaluated in triplicate or quadruplicate.

[3] = Mouse plasma stability (HPLC); format: in vitro ADME; details: mouse plasma at 37° C.
[4] = Solubility in phosphate buffered saline (HPLC); format: physicochemical; details: aqueous buffer, read-out: Buffer Soluble
[5] = test system: cytotoxicity or splicing modulation; assay: Rapid onset of cytotoxicity or splicing modulation; format: cell-based; details: maximum cytotoxicity or splicing modulation within 5 hours of drug treatment
Description: The cell were seeded in of 100 μl of medium into 96-well plates (HeLa at 4×10^4 cell/well; SK_MEL_2 at 6×10^4 cell/well), they were allowed to attach overnight, and then treatments started by adding 50 μl of medium containing Sudemycin D6 to produce a final concentration of 1 μM and DMSO to 0.5% v/v final into the experimental well. Continuous drug treatments were run in the same plate, using concentrations of 0, 62.5, 125, 250, 500 & 1000 nM final. DMSO was added into all wells, including non-treated wells to 0.5% v/v final concentration. For wells where the drug was withdrawn, the medium was carefully aspirated after 1, 2, 3 and 4 hours after the addition of the drug, the cells were washed once with PBS and then 150 μl of fresh cell culture medium containing 0.5% v/v DMSO was added into all washed out wells. After 72 hours of the addition of drug, the cell viability was determined using CellTiter-Glo luminescent cell viability assay (Promega, Madison, Wis.), and Sudemycin D6 cytotoxicity was calculated as the percentage of cell proliferation inhibition against the control treatment DMSO.

[6] = test system: SK-MEL-2; assay: Drug combination assay, SK-MEL-2; format: cell-based; details: for CI in SK-MEL-2 with compound 19: Combination Index at ED50, CalcuSyn 2.1, listed drug + compound 19
Description: (§1) Preliminary cytotoxic screenings for each drug used in drug combination assays were performed to determine their cytotoxic dose range. […] Eight concentrations were established by 1:3 serial dilutions of the single drugs and their combinations with the splicing modulators. All drug concentrations were evaluated in triplicate in 96-well cell culture plates. Assays of individual drugs and drug combinations were run on the same tissue culture plate. Cell viability was determined using the CellTiter-Glo reagent.
(§2) Luminescence data obtained from the cell viability determinations were formatted per the requirements of the analytical software (viability data range: >0 and <1). The formatted data were analyzed with the software CalcuSyn 2.1 (Biosoft, Cambridge, UK), which provides quantitative CI values for the drug interaction analyses (see ranges in Supplementary Table S2).

[7] = test system: cell lines investigated; assay: Drug combination assays, cell line not stated; format: cell-based
Description: as §1, §2

[8] = test system: Sk-N-AS; assay: Drug combination assay, Sk-N-AS neuroblastoma; format: cell-based; details: neuroblastoma cell line SK-NA-S; CalcuSyn 2.1
Description: as §1, §2

[9] = listed drug combined with compound 19, Ineffective = drug IC50 much higher than 1 μM

CC(/C=C/C1C[C@]2(CO2)CC(C)(C)O1)=C\C[C@H]1OC[C@@H](NC(=O)/C=C\[C@H](C)OC(=O)N(C)C)CO1 (stereo partly shown)
MDM2 Splicing Effects [1]: Yes | IC50 ([2]; Table II): 0.3 µM | Plasma Stability [3]: Yes (“Yes” indicates mouse plasma stability is >5 hours in mouse plasma at 37 °C as determined by HPLC.) | solubility [4]: > 10 µM | Rapid Onset [5]: No

CC(/C=C/[C@@H]1C[C@]2(CO2)CC(C)(C)O1)=C\C[C@H]1OC[C@@H](NC(=O)/C=C\[C@H](C)OC(=O)N(C)C(C)(C)C)CO1
IC50 ([2]; Table III): 0.78 µM

COC(=O)C[C@](O)(CCC(C)(C)O)C(=O)O[C@@H]1C(OC)=C[C@]23CCCN2CCc2cc4c(cc2[C@H]13)OCO4 [Harringtonine]
Interaction Type [6, 9]: Antagonism (1.45-3.3)

CC[C@@]1(O)C(=O)OCc2c1cc1n(c2=O)Cc2cc3ccccc3nc2-1 [Camptothecin]
CI in SK-MEL-2 with compound 19 [6]: 0.74 | Interaction Type [6, 9]: Antagonism (1.45-3.3)

CC(=O)O[C@H]1C(=O)[C@@]2(C)[C@H]([C@H](OC(=O)c3ccccc3)[C@]3(O)C[C@H](OC(=O)[C@H](O)[C@@H](NC(=O)c4ccccc4)c4ccccc4)C(C)=C1C3(C)C)[C@]1(OC(C)=O)CO[C@@H]1C[C@@H]2O [Taxol]
Interaction Type [6, 9]: Antagonism (1.45-3.3)

Cc1ccc(NC(=O)c2ccc(CN3CCN(C)CC3)cc2)cc1Nc1nccc(-c2cccnc2)n1 [Imatinib]
Interaction Type [6, 9]: Antagonism (1.45-3.3)

CNC(=O)O[C@@H](C)/C=C\C(=O)N[C@H]1CC[C@@H](C/C=C(C)/C=C/[C@@H]2C[C@]3(CO3)CC(C)(C)O2)CC1 [drawing 208]
MDM2 Splicing Effects [1]: Yes | IC50 ([2]; Table II): 0.022 µM | Plasma Stability [3]: Yes (“Yes” indicates mouse plasma stability is >5 hours in mouse plasma at 37 °C as determined by HPLC.) | solubility [4]: > 10 µM | Rapid Onset [5]: Yes (“Yes” indicates maximum cytotoxicity or splicing modulation is seen within 5 hours of drug treatment.)

C/C(=C\C(=O)Nc1ccccc1C(=O)O)c1ccc2ccccc2c1 [BIBR 1532]
Interaction Type [6]: Ineffective

CCCCCCCCCCCCNC(=O)NC1CCCCC1 [NCND]
Interaction Type [6, 9]: Slightly | cytotoxic effect of drug alone ([7]; single drug in combination assays): Neither AUDA nor NCND alone produced a cytotoxic effect

Cc1ncc(C[n+]2csc(CCO)c2C)c(=O)[nH]1 [Oxythiamine]
Interaction Type [6, 9]: Ineffective

Cn1c(=O)n(-c2ccc(C(C)(C)C#N)cc2)c2c3cc(-c4cnc5ccccc5c4)ccc3ncc21 [BEZ 235]
CI in SK-MEL-2 with compound 19 [6]: 0.21 | Interaction Type [6, 9]: Strong | drug interaction with compound 19 [8]: strong synergism | drug interaction with compound 20 [8]: strong synergism | drug interaction with compound 19 (panel of 23 drugs) [7]: strongest synergy

CC(/C=C/[C@@H]1C[C@]2(CO2)CC(C)(C)O1)=C\C[C@H]1OC[C@@H](NC(=O)/C=C\[C@H](C)OC(=O)NC(C)(C)C)CO1
IC50 ([2]; Table III): > 1 µM

CO[C@@]12[C@H](COC(N)=O)C3=C(C(=O)C(C)=C(N)C3=O)N1C[C@@H]1N[C@@H]12 [Mitomycin C]
Interaction Type [6]: Ineffective

Cc1[nH]c2ccccc2c1CCNCc1ccc(/C=C/C(=O)NO)cc1 [Panobinostat]
CI in SK-MEL-2 with compound 19 [6]: 0.76

CC(/C=C/[C@@H]1C[C@]2(CO2)CC(C)(C)O1)=C\C[C@H]1CC[C@@H](NC(=O)/C=C\[C@H](C)OC(=O)N(C)CCN(C)C)CC1
IC50 ([2]; Table II): 0.17 µM | solubility [4]: > 10 µM

CC(/C=C/[C@@H]1C[C@]2(CO2)CC(C)(C)O1)=C\C[C@H]1OC[C@@H](NC(=O)/C=C\[C@H](C)OC(=O)N(C)C(C)C)CO1
IC50 ([2]; Table III): 0.7 µM

CC(/C=C/[C@@H]1C[C@]2(CO2)CC(C)(C)O1)=C\C[C@H]1OC[C@@H](NC(=O)/C=C\[C@H](C)OC(=O)N(C)C)CO1
IC50 ([2]; Table III): 0.3 µM

CNC(=O)c1cc(Oc2ccc(NC(=O)Nc3ccc(Cl)c(C(F)(F)F)c3)cc2)ccn1 [Sorafenib]
CI in SK-MEL-2 with compound 19 [6]: 0.43 | drug interaction with compound 19 [8]: predominantly synergistic | drug interaction with compound 19 (panel of 23 drugs) [7]: second strongest synergistic agent

COc1ccc(C2=N[C@@H](c3ccc(Cl)cc3)[C@@H](c3ccc(Cl)cc3)N2C(=O)N2CCNC(=O)C2)c(OC(C)C)c1 [Nutlin-3]
Interaction Type [6, 9]: Ineffective

COc1ccc2c(c1)/C(=C/c1cnc[nH]1)C(=O)N2 [SU 9516]
CI in SK-MEL-2 with compound 19 [6]: 0.83 | Interaction Type [6, 9]: Antagonism (1.45-3.3)

O=c1[nH]cc(F)c(=O)[nH]1 [5-Fluorouracil]
Interaction Type [6, 9]: Ineffective^a

O=C(O)c1nn(Cc2ccc(Cl)cc2Cl)c2ccccc12 [Lonidamine]
Interaction Type [6, 9]: Ineffective

NC(=O)NO [Hydroxyurea]
Interaction Type [6]: Ineffective

COc1cc(C2Oc3cc([C@H]4Oc5cc(O)cc(O)c5C(=O)[C@@H]4O)ccc3OC2CO)ccc1O (stereo partly shown) [Silibinin]
CI in SK-MEL-2 with compound 19 [6]: 0.89 | Interaction Type [6, 9]: Moderate

CC(/C=C/[C@@H]1C[C@]2(CO2)CC(C)(C)O1)=C\C[C@H]1CC[C@@H](NC(=O)/C=C\[C@H](C)OC(N)=O)CC1
IC50 ([2]; Table II): 0.1 µM

CC(C)C[C@H](NC(=O)[C@H](Cc1ccccc1)NC(=O)c1cnccn1)B(O)O [Bortezomib]
Interaction Type [6, 9]: Antagonism (1.45-3.3)

COc1cccc2c1C(=O)c1c(O)c3c(c(O)c1C2=O)C[C@@](O)(C(=O)CO)C[C@@H]3O[C@H]1C[C@H](N)[C@H](O)[C@H](C)O1 [Doxorubicin]
Interaction Type [6, 9]: Ineffective

CCCCN(C)C(=O)O[C@@H](C)/C=C\C(=O)N[C@H]1CO[C@@H](C/C=C(C)/C=C/[C@@H]2C[C@]3(CO3)CC(C)(C)O2)OC1
IC50 ([2]; Table III): 0.69 µM

COc1cc([C@@H]2c3cc4c(cc3[C@@H](O[C@@H]3O[C@@H]5CO[C@@H](C)O[C@H]5[C@H](O)[C@H]3O)[C@H]3COC(=O)[C@H]23)OCO4)cc(OC)c1O [Etoposide]
Interaction Type [6]: Ineffective

CCCN(C)C(=O)O[C@@H](C)/C=C\C(=O)N[C@H]1CO[C@@H](C/C=C(C)/C=C/[C@@H]2C[C@]3(CO3)CC(C)(C)O2)OC1
IC50 ([2]; Table III): 0.61 µM
